Earlier results in publication PMC8764166, “Phenolic-Rich Plant Extracts With Antimicrobial Activity: An Alternative to Food Preservatives and Biocides?” (Frontiers in Microbiology, 2022).
≈ marks a conversion by molar mass, not a printed value. Like-named read-outs stand apart in the source and are kept apart here.

Columns and labels:
Bacillus cereus = conditions: for MIC against Bacillus cereus: ref Skroza et al., 2019
Escherichia coli = conditions: for MIC against Escherichia coli: E. coli O157:H7 ATCC 43890, 2.5 10^6 cfu·ml^−1, Mueller Hinton broth, ref Pacheco-Ordaz et al., 2017
[1] = test system: biofilms with undesirable food spoiling or foodborne pathogenic microorganisms; design: method as in the references listed per substance; conditions: the references listed per substance
Enterococcus faecalis = conditions: for MIC against Enterococcus faecalis: ref Adamczak et al., 2020
Pseudomonas aeruginosa = conditions: 2020
Salmonella Infantis = test system: Salmonella Infantis; design: method as in Skroza et al., 2019; conditions: ref Skroza et al., 2019
L. monocytogenes = test system: L. monocytogenes; design: method as in Pernin et al., 2019; conditions: ref Pernin et al., 2019
[2] = test system: Salmonella enterica serovar Typhimurium; conditions: ref Alvarado-Martinez et al., 2020
S. aureus = conditions: up to 20% (w/w) proteins, 37°C, 15°C or 6°C; ref Bouarab-Chibane et al. (2018b)
[3] = ŽMJ 129 (clinical isolate), 10^5–10^6 cfu·ml^−1, Mueller Hinton broth, 24 h 37°C, ref Skroza et al., 2019

COC1=CC(=O)C=C(OC)C1=O [2,6-dimethoxy-1,4-benzoquinone]
MIC against B. cereus (Bacillus cereus; ref Kim et al., 2010): 64 mg/L (≈ 381 µM) | MIC against S. typhimurium (Salmonella typhimurium; ref Kim et al., 2010): 32 mg/L (≈ 190 µM) | MIC against E. coli (Escherichia coli; ref Kim et al., 2010): 0.032 g/L (≈ 190 µM) | MIC against S. aureus (Staphylococcus aureus; ref Kim et al., 2010): 0.008 g/L (≈ 47.6 µM)

Cc1ccc(O)c(O)c1 [4-methylcatechol]
activity against biofilms [1]: inhibit formation or to eradicate biofilms

CC(C)(C)c1ccc(O)c(O)c1 [4-tert-butylcatechol]
activity against biofilms [1]: inhibit formation or to eradicate biofilms

O=c1cc(-c2ccc(O)cc2)oc2cc(O)cc(O)c12 [Apigenin]
MIC against E. coli (Escherichia coli; ref Adamczak et al., 2020): 0.5 g/L (≈ 1850 µM) | MIC against Enterococcus faecalis (Enterococcus faecalis): 1 g/L (≈ 3700 µM) | MIC against S. aureus (Staphylococcus aureus; ref Adamczak et al., 2020): 0.5 to 1 g/L | MIC against P. aeruginosa (Pseudomonas aeruginosa; ref Adamczak et al.): 0.5 g/L (≈ 1850 µM)

Oc1cc(O)c2c(c1)O[C@H](c1ccc(O)c(O)c1)[C@H](O)C2 [Epicatechin]
MIC against Bacillus cereus (Bacillus cereus): 0.36 g/L (≈ 1240 µM) | MIC against E. coli (Escherichia coli; [3]): 0.72 g/L (≈ 2480 µM) | MIC against Salmonella Infantis (Salmonella Infantis): 0.72 g/L (≈ 2480 µM) | MIC against S. aureus (Staphylococcus aureus; ref Skroza et al., 2019): 0.72 g/L (≈ 2480 µM)

O=c1cc(-c2ccccc2)oc2ccccc12 [Flavone]
MIC against E. coli (Escherichia coli; ref Adamczak et al., 2020): E. faecalis 0.5 g·L^−1 E. coli 0.5 g·L^−1 P. aeruginosa 0.5 g·L^−1 | MIC against Enterococcus faecalis (Enterococcus faecalis): E. faecalis 0.5 g·L^−1 E. coli 0.5 g·L^−1 P. aeruginosa 0.5 g·L^−1 | MIC against P. aeruginosa (Pseudomonas aeruginosa; ref Adamczak et al.): E. faecalis 0.5 g·L^−1 E. coli 0.5 g·L^−1 P. aeruginosa 0.5 g·L^−1

O=c1c(O)c(-c2ccc(O)cc2)oc2cc(O)cc(O)c12 [Kaempferol]
MIC against Bacillus cereus (Bacillus cereus): 0.09 g/L (≈ 314 µM) | MIC against E. coli (Escherichia coli; ref Adamczak et al., 2020): E. coli 0.5 g·L^−1 | MIC against E. coli (Escherichia coli; [3]): 0.36 g/L (≈ 1260 µM) | MIC against E. faecalis (Enterococcus faecalis; ref del Valle et al., 2016): E. faecalis 0.1 g·L^−1 | MIC against Salmonella Infantis (Salmonella Infantis): 0.36 g/L (≈ 1260 µM) | MIC against S. aureus (Staphylococcus aureus; ref Skroza et al., 2019): 0.09 g/L (≈ 314 µM)

O=c1cc(-c2ccc(O)c(O)c2)oc2cc(O)cc(O)c12 [Luteolin]
MIC against Bacillus cereus (Bacillus cereus): 0.09 g/L (≈ 314 µM) | MIC against Enterococcus faecalis (Enterococcus faecalis): 1 g/L (≈ 3490 µM) | MIC against S. aureus (Staphylococcus aureus; ref Adamczak et al., 2020): 0.5 g/L (≈ 1750 µM) | MIC against S. aureus (Staphylococcus aureus; ref Skroza et al., 2019): 0.045 g/L (≈ 157 µM) | MIC against P. aeruginosa (Pseudomonas aeruginosa; ref Adamczak et al.): 0.5 g/L (≈ 1750 µM)

C[C@@H]1O[C@@H](O[C@H]2[C@H](Oc3cc(O)c4c(c3)O[C@H](c3ccc(O)cc3)CC4=O)O[C@H](CO)[C@@H](O)[C@@H]2O)[C@H](O)[C@H](O)[C@H]1O [Naringin]
MIC against E. coli (Escherichia coli; ref Adamczak et al., 2020): 0.5 g/L (≈ 861 µM) | MIC against Enterococcus faecalis (Enterococcus faecalis): 1 g/L (≈ 1720 µM) | MIC against P. aeruginosa (Pseudomonas aeruginosa; ref Adamczak et al.): 0.5 g/L (≈ 861 µM)

O=c1cc(-c2ccc(O)c(O)c2)oc2c([C@@H]3O[C@H](CO)[C@@H](O)[C@H](O)[C@H]3O)c(O)cc(O)c12 [Orientin]
MIC against E. coli (Escherichia coli; ref Adamczak et al., 2020): 0.5 g/L (≈ 1120 µM) | MIC against Enterococcus faecalis (Enterococcus faecalis): 1 g/L (≈ 2230 µM) | MIC against S. aureus (Staphylococcus aureus; ref Adamczak et al., 2020): 0.5 g/L (≈ 1120 µM) | MIC against P. aeruginosa (Pseudomonas aeruginosa; ref Adamczak et al.): 0.5 g/L (≈ 1120 µM)

CC(C)=CCc1c(O)ccc2c1O[C@H]1c3ccc(O)cc3OC[C@@H]21 [Phaseollidin]
MIC against B. cereus (Bacillus cereus; ref Sadgrove et al., 2020): 10 mg/L (≈ 30.8 µM) | MIC against E. coli (Escherichia coli; ref Sadgrove et al., 2020): 0.02 g/L (≈ 61.7 µM) | MIC against S. aureus (Staphylococcus aureus; ref Sadgrove et al., 2020): 0.01 g/L (≈ 30.8 µM) | MIC against P. aeruginosa (Pseudomonas aeruginosa; ref Sadgrove et al.): 0.02 g/L (≈ 61.7 µM)

O=C(O)c1ccc(O)c(O)c1 [Proto-catechuic acid]
MIC against Bacillus cereus (Bacillus cereus): 0.19 g/L (≈ 1230 µM) | MIC against Escherichia coli (Escherichia coli; 24 h 37°C): E. coli, 3.1 g·L^−1 | MIC against E. coli (Escherichia coli; [3]): 0.38 g/L (≈ 2470 µM) | MIC against Salmonella Infantis (Salmonella Infantis): 0.38 g/L (≈ 2470 µM) | MIC against S. aureus (Staphylococcus aureus; ref Skroza et al., 2019): 0.38 g/L (≈ 2470 µM) | mechanism of action against L. monocytogenes (L. monocytogenes): penetration or accumulation in the bacterial membrane of undissociated form | cell morphology [2]: morphological defects at the polar ends of bacteria | expression of virulence genes (SPI-1) [2]: downregulation of key regulatory genes | membrane permeabilization [2]: membrane permeabilization

O=C(/C=C/c1ccc(O)c(O)c1)O[C@H](Cc1ccc(O)c(O)c1)C(=O)O [Rosmarinic acid]
MIC against Bacillus cereus (Bacillus cereus): S. aureus 0.45 g·L^−1 B. cereus 0.45 g·L^−1 E. coli 0.45 g·L^−1 S. Infantis 0.45 g·L^−1 | MIC against E. coli (Escherichia coli; ref Adamczak et al., 2020): 0.5 g/L (≈ 1390 µM) | MIC against E. coli (Escherichia coli; [3]): S. aureus 0.45 g·L^−1 B. cereus 0.45 g·L^−1 E. coli 0.45 g·L^−1 S. Infantis 0.45 g·L^−1 | MIC against Enterococcus faecalis (Enterococcus faecalis): 1 g/L (≈ 2780 µM) | MIC against Salmonella Infantis (Salmonella Infantis): S. aureus 0.45 g·L^−1 B. cereus 0.45 g·L^−1 E. coli 0.45 g·L^−1 S. Infantis 0.45 g·L^−1 | MIC against S. aureus (Staphylococcus aureus; ref Skroza et al., 2019): S. aureus 0.45 g·L^−1 B. cereus 0.45 g·L^−1 E. coli 0.45 g·L^−1 S. Infantis 0.45 g·L^−1 | MIC against P. aeruginosa (Pseudomonas aeruginosa; ref Adamczak et al.): 0.5 to 1 g/L

O=C(O)c1ccccc1O [Salicylic acid]
MIC against Bacillus cereus (Bacillus cereus): 0.17 g/L (≈ 1230 µM) | MIC against E. coli (Escherichia coli; ref Adamczak et al., 2020): 0.25 to 0.5 g/L | MIC against E. coli (Escherichia coli; [3]): 0.17 g/L (≈ 1230 µM) | MIC against Enterococcus faecalis (Enterococcus faecalis): 0.5 g/L (≈ 3620 µM) | MIC against Salmonella Infantis (Salmonella Infantis): 0.17 g/L (≈ 1230 µM) | MIC against S. aureus (Staphylococcus aureus; ref Adamczak et al., 2020): 0.25 to 0.5 g/L | MIC against S. aureus (Staphylococcus aureus; ref Skroza et al., 2019): 0.35 g/L (≈ 2530 µM) | MIC against P. aeruginosa (Pseudomonas aeruginosa; ref Adamczak et al.): 0.5 g/L (≈ 3620 µM)

COc1cc(C(=O)O)cc(OC)c1O [Syringic acid]
MIC against Bacillus cereus (Bacillus cereus): 0.25 g/L (≈ 1260 µM) | MIC against S. typhimurium (Salmonella typhimurium; ref Phadungkit and Luanratana, 2006): S. typhimurium 0.0625 g·L^−1 | MIC against E. coli (Escherichia coli; [3]): 0.25 g/L (≈ 1260 µM) | MIC against Salmonella Infantis (Salmonella Infantis): 0.25 g/L (≈ 1260 µM) | MIC against S. aureus (Staphylococcus aureus; ref Skroza et al., 2019): 0.5 g/L (≈ 2520 µM)

COc1cc(C(=O)O)ccc1O [Vanillic acid]
MIC against Bacillus cereus (Bacillus cereus): 0.1 g/L (≈ 595 µM) | MIC against Salmonella typhimurium (Salmonella typhimurium; ref Pacheco-Ordaz et al., 2017): 2.5 g/L (≈ 14900 µM) | MIC against Escherichia coli (Escherichia coli; 24 h 37°C): 3.4 g/L (≈ 20200 µM) | MIC against E. coli (Escherichia coli; [3]): 0.1 g/L (≈ 595 µM) | MIC against Salmonella Infantis (Salmonella Infantis): 0.21 g/L (≈ 1250 µM) | MIC against S. aureus (Staphylococcus aureus; ref Skroza et al., 2019): 0.42 g/L (≈ 2500 µM) | activity against biofilms [1]: inhibit formation or to eradicate biofilms | mechanism of action against L. monocytogenes (L. monocytogenes): penetration or accumulation in the bacterial membrane of undissociated form | cell morphology [2]: observation of mid-division cells | membrane permeabilization [2]: membrane permeabilization

O=c1cc(-c2ccc(O)cc2)oc2c([C@@H]3O[C@H](CO)[C@@H](O)[C@H](O)[C@H]3O)c(O)cc(O)c12 [Vitexin]
MIC against E. coli (Escherichia coli; ref Adamczak et al., 2020): 0.5 g/L (≈ 1160 µM) | MIC against Enterococcus faecalis (Enterococcus faecalis): 1 g/L (≈ 2310 µM) | MIC against P. aeruginosa (Pseudomonas aeruginosa; ref Adamczak et al.): 0.5 g/L (≈ 1160 µM)

O=C(O)/C=C/c1ccccc1 [cinnamic acid]
activity against biofilms [1]: inhibit formation or to eradicate biofilms

CN(C)c1ccc2nc3c(C(=O)O)cc(=O)c(O)c-3oc2c1 [gallocyanin]
antibacterial activity in the presence of bovine meat proteins (S. aureus): kept its bactericidal activity at 37 °C up to a 5% (w/w) protein content in the medium, but not at 15 °C or 6 °C

O=c1cc(-c2ccc(O)c(O)c2)oc2cc(O)c([C@@H]3O[C@H](CO)[C@@H](O)[C@H](O)[C@H]3O)c(O)c12 [isoorientin]
MIC against E. coli (Escherichia coli; ref Adamczak et al., 2020): 0.5 g/L (≈ 1120 µM) | MIC against Enterococcus faecalis (Enterococcus faecalis): 1 g/L (≈ 2230 µM) | MIC against S. aureus (Staphylococcus aureus; ref Adamczak et al., 2020): 0.5 g/L (≈ 1120 µM) | MIC against P. aeruginosa (Pseudomonas aeruginosa; ref Adamczak et al.): 0.5 g/L (≈ 1120 µM)

O=c1cc(-c2ccc(O)cc2)oc2cc(O)c([C@@H]3O[C@H](CO)[C@@H](O)[C@H](O)[C@H]3O)c(O)c12 [isovitexin]
MIC against E. coli (Escherichia coli; ref Adamczak et al., 2020): 0.5 g/L (≈ 1160 µM) | MIC against Enterococcus faecalis (Enterococcus faecalis): 1 g/L (≈ 2310 µM) | MIC against P. aeruginosa (Pseudomonas aeruginosa; ref Adamczak et al.): 0.5 g/L (≈ 1160 µM)

O=c1c(O)c(-c2ccc(O)cc2O)oc2cc(O)cc(O)c12 [morin]
activity against biofilms [1]: inhibit formation or to eradicate biofilms

O=c1c(O)c(-c2cc(O)c(O)c(O)c2)oc2cc(O)cc(O)c12 [myricetin]
activity against biofilms [1]: inhibit formation or to eradicate biofilms

O=C1C=CC(=O)c2c(O)ccc(O)c21 [naphthazarin]
antibacterial activity in the presence of bovine meat proteins (S. aureus): bactericidal at 6 °C and 15°C, unlike at 37 °C

O=C(O)c1ccc(O)cc1 [p-hydroxybenzoic acid]
mechanism of action against L. monocytogenes (L. monocytogenes): penetration or accumulation in the bacterial membrane of undissociated form

Oc1cccc(O)c1O [pyrogallol]
activity against biofilms [1]: inhibit formation or to eradicate biofilms

C[C@@H]1O[C@@H](O[C@@H]2[C@@H](O)[C@H](O)[C@@H](CO)O[C@H]2c2c(O)cc(O)c3c(=O)cc(-c4ccc(O)cc4)oc23)[C@H](O)[C@H](O)[C@H]1O [vitexin 2"-o-rhamnoside]
MIC against E. coli (Escherichia coli; ref Adamczak et al., 2020): 0.5 g/L (≈ 864 µM) | MIC against Enterococcus faecalis (Enterococcus faecalis): 1 g/L (≈ 1730 µM) | MIC against P. aeruginosa (Pseudomonas aeruginosa; ref Adamczak et al.): 0.5 g/L (≈ 864 µM)
